{"source": "patent US20110229505A1", "about": "“Methods for the diagnosis and treatment of cancer based on AVL9” (IMMATICS BIOTECHNOLOGIES GMBH, priority 2010, published 2011)", "test_system": "CD8+ T cells of healthy HLA-A*24 donors", "experiment": "In vitro immunogenicity for MHC class I presented peptides (aAPC priming, A*2402 multimer staining)", "assay_type": "cell-based, human", "settings": "in vitro priming of CD8+ T cells with peptide-loaded HLA-A*2402/anti-CD28 beads, three stimulation cycles", "procedure": "CD8 T cells were either directly enriched from the leukapheresis product or PBMCs (peripheral blood mononuclear cells) were isolated first by using standard gradient separation medium (PAA, Cölbe, Germany). Isolated CD8 lymphocytes or PBMCs were incubated until use in T-cell medium (TCM) consisting of RPMI-Glutamax (Invitrogen, Karlsruhe, Germany) supplemented with 10% heat inactivated human AB serum (PAN-Biotech, Aidenbach, Germany), 100 U/ml Penicillin/100 μg/ml Streptomycin (Cambrex, Cologne, Germany), 1 mM sodium pyruvate (CC Pro, Oberdorla, Germany), 20 μg/ml Gentamycin (Cambrex). […] Isolation of CD8+ lymphocytes was performed by positive selection using CD8 MicroBeads (Miltenyi Biotec, Bergisch-Gladbach, Germany).\n800.000 beads/200 μl were coated in 96-well plates in the presence of 600 ng biotin anti-CD28 plus 200 ng relevant biotin-pMHC (high density beads). Stimulations were initiated in 96-well plates by co-incubating 1×10^6 CD8+ T cells with 2×10^5 washed coated beads in 200 μl TCM supplemented with 5 ng/ml IL-12 (PromoCell) for 3-4 days at 37° C. […] Peptide specific cells were calculated as percentage of total CD8+ cells. […] In vitro priming of specific multimer+ CD8+ lymphocytes was detected by appropriate gating and by comparing to negative control stimulations.", "data": [{"substance": "1 (FYISPVNKL; listed as Homo sapiens) [compound 1]", "values": [{"measurement": "Positive donors/donors tested [%]", "setting": "among evaluable donors", "value": 100, "unit": "%"}, {"measurement": "Positive wells/wells tested [%]", "setting": "among evaluable wells", "value": 50, "unit": "%"}]}]}
